Target: Androgen receptor (Mus musculus) (UniProt P19091)
Test: Antagonist activity at wild type AR expressed in mouse SC-3 cells assessed as inhibition of 1 nM DHT-induced cell proliferation after 3 days by WST-8 assay; call rule not given here

Chain of Androgen receptor (Mus musculus) (P19091 whole entry, looked up): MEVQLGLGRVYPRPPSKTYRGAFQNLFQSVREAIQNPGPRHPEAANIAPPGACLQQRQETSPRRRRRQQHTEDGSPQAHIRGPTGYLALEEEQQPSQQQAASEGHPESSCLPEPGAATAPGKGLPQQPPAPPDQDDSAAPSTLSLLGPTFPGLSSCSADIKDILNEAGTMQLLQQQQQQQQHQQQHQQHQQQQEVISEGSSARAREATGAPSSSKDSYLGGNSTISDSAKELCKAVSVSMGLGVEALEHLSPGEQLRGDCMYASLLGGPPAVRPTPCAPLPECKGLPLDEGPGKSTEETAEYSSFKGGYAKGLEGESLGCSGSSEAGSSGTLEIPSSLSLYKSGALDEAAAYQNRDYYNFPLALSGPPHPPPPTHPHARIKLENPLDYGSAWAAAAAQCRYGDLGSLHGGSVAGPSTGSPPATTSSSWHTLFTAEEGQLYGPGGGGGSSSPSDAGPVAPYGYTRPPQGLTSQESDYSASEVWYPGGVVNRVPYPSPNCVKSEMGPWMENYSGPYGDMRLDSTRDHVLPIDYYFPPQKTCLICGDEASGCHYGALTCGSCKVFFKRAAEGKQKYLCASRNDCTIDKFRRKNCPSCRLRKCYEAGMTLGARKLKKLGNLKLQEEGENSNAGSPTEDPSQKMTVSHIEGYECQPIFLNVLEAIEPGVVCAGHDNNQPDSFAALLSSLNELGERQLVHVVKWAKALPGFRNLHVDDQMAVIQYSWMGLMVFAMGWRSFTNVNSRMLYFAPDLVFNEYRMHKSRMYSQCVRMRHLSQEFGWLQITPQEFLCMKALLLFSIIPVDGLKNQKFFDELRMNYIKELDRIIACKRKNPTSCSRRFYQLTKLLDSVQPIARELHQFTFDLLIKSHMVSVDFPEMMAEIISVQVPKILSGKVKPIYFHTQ

## O=[N+]([O-])c1ccc(Cc2nnc(O)c3ccccc23)cc1
  IC50: Not Active

## Nc1ccc(Cc2n[nH]c(=O)c3ccccc23)cc1
  IC50: Not Active

## CC(=O)Nc1ccc(Cc2n[nH]c(=O)c3ccccc23)cc1
  IC50: Not Active

## O=C(Nc1ccc(Cc2n[nH]c(=O)c3ccccc23)cc1)C(F)(F)F
  IC50: Not Active

## CS(=O)(=O)Nc1ccc(Cc2n[nH]c(=O)c3ccccc23)cc1
  IC50: Not Active

## CCN(CC)c1ccc(Cc2n[nH]c(=O)c3ccccc23)cc1
  IC50: Not Active

## CCNc1ccc(Cc2n[nH]c(=O)c3ccccc23)cc1
  IC50: Not Active

## CN(C)c1ccc(Cc2n[nH]c(=O)c3ccccc23)cc1
  IC50: Not Active

## CNc1ccc(Cc2n[nH]c(=O)c3ccccc23)cc1
  IC50: Not Active

## O=C(O)c1ccccc1Cc1n[nH]c(=O)c2ccccc12
  IC50: Not Active

## CC(=O)Nc1ccccc1Cc1n[nH]c(=O)c2ccccc12
  IC50: Not Active

## CS(=O)(=O)Nc1ccccc1Cc1n[nH]c(=O)c2ccccc12
  IC50: Not Active
